Test results from US20110092367A1, “Herbicidal Compositions Comprising 4-amino-3,6-dichloropyridine-2-carboxylic Acid” (BASF SE, priority 2008, published 2011).

Assays:
Format in all cases: in vivo
Sinapis alba = test: Field trial Example 1, successive application: damage on SINAL; settings: DAT 25/DALT 10
Source text: (§1) Aminiopyralid was used as commercial aquaeous solution having an active ingredient concentration of 240 g/l (Milestone™). Metazachlor was used as a commercial suspension concentrate having an active ingredient concentration of 500 g/l (Butisan S®).
(§2) The performance of aminopyralid applied as an alone treatment at 15, 30 and 50 g a.i./ha applied as an early post emergence treatment and an post emergence treatment in comparison to two different applications including metazachlor at 500 g a.i./ha as an early post emergence application in succession of aminopyralid as a post emergence application at 15 and 30 g a.i./ha was assessed in an oilseed rape field trials.
(§3) The early post emergence treatment was applied by means of fine distributed nozzles at the growth stage (GS) of the crop BBCH 11-12.
(§4) The post emergence treatment was applied by means of fine distributed nozzles at the growth stage (GS) of the crop BBCH 13-14.
(§5) The test period extended over the autumn and spring season (205 days).
(§6) In the following experiments, the herbicidal activity for the individual herbicide compounds (solo application) and of the herbicidal succession was assessed 4 times:
(§7) The evaluation for the damage on undesired weeds caused by the chemical compositions was carried out using a scale from 0 to 100%, compared to the untreated control plants. Here, 0 means no damage and 100 means complete destruction of the plants.

Geranium pusillum = test: Field trial Example 1, successive application: damage on GERPU
Source text: as §1, §2, §3, §4, §5, §6, §7

Sissimbrium officinale = test: Field trial Example 1, successive application: damage on SSYOF
Source text: as §1, §2, §3, §4, §5, §6, §7

Stellaria media [1] = test: Field trial Example 2, combined application: STEME; settings: Aminopyralid 7.5 g ai/ha solo, 28 DAT
Method: as §1, §7
The value E, which is to be expected if the activity of the individual compounds is just additive, was calculated using the method of S. R. Colby (1967) “Calculating synergistic and antagonistic responses of herbicide combinations”, Weeds 15, p. 22 ff.
The performance of aminopyralid, applied as an alone treatment at […] and 15 g ai/ha, and the performance of metazachlor, applied as an alone treatment at 375 and 500 g ai/ha, as well as the mixtures of the both compounds have been assessed in winter oilseed rape field trials. The trials have been conducted in Germany at two locations.
Post emergence treatment was applied by means of fine distributed nozzels at the growth stage (GS/BBCH 11/12).

Capsella bursa-pasturis = test: Greenhouse trial, post-emergence: CAPBP; settings: aminopyralid 10 g ai/ha solo, post-emergence (Table 10)
Method: (§8) The test plants have been seeded, separately for each species, in plastic containers in sandy loamy soil containing 5% organic matter.
(§9) For the post emergence treatment, the plants were first grown to the 2 leaf station (GS 12). Here, the herbicidal compositions were suspended or emulsified in water as distribution medium and sprayed using finely distributing nozzels.
(§10) The plants have been cultivated due to there individual requirements at 10-25° C. and 20-35° C. The plants were irrigated due to there necessity. […]
as §7
(§11) Calculation of expected activity of binary mixtures was done by using the Colby-Formula according to Example 1.

Papaver rhoeas = test: Greenhouse trial, post-emergence: PAPRH; settings: aminopyralid 10 g ai/ha solo
Method: as §8, §9, §10, §7, §11

Mercurialis annua = test: Greenhouse trial, post-emergence: MERAN; settings: for % activity 28 DAT: MERAN
Method: as §8, §9, §10, §7, §11

Matricaria inodora = test: Greenhouse trial, post-emergence: MATIN; settings: post-emergence (Tables 7-9)
Method: as §8, §9, §10, §7, §11

Matricaria chamomilla = test: Greenhouse trial, post-emergence: MATCH; settings: read-out: % activity, MATCH
Method: as §8, §9
The plants have been cultivated due to there individual requirements at 10-25° C. and 20-35° C. The plants were irrigated due to there necessity.
In the following experiments, the herbicidal activity for the individual herbicide compounds (solo and mixture applications), the herbicidal succession was assessed 14 days after treatment (DAT).
as §7, §11
E=(X+Y+Z)−(X*Y+X*Z+Y*Z/100)+(X*Y*Z/1000)
Tables 6 to 10 relate to the herbicidal activity, in greenhouse trials, of the individual actives and the combination in post-emergence application 14 DAT.

Stellaria media [2] = test: Greenhouse trial, post-emergence: STEME; settings: post-emergence (Tables 7-9)
Method: as §8, §9, §10, §7, §11

[3] = 15 g ai/ha, treatment A early post emergence, DAT 25/DALT 10
[4] = 15 g ai/ha, treatment A early post emergence, DAT 65/DALT 50
[5] = 15 g ai/ha, treatment A early post emergence, DAT 176/DALT 161
[6] = 15 g ai/ha, treatment B post emergence, DAT 25/DALT 10
[7] = 15 g ai/ha, treatment B post emergence, DAT 65/DALT 50
[8] = 15 g ai/ha, treatment B post emergence, DAT 176/DALT 161
[9] = 30 g ai/ha, treatment A early post emergence, DAT 25/DALT 10
[10] = 30 g ai/ha, treatment A early post emergence, DAT 65/DALT 50
[11] = 30 g ai/ha, treatment A early post emergence, DAT 176/DALT 161
[12] = 30 g ai/ha, treatment B post emergence, DAT 25/DALT 10
[13] = 30 g ai/ha, treatment B post emergence, DAT 65/DALT 50
[14] = 30 g ai/ha, treatment B post emergence, DAT 176/DALT 161
[15] = 50 g ai/ha, treatment A early post emergence, DAT 25/DALT 10
[16] = 50 g ai/ha, treatment A early post emergence, DAT 65/DALT 50
[17] = 50 g ai/ha, treatment A early post emergence, DAT 176/DALT 161
[18] = 50 g ai/ha, treatment B post emergence, DAT 25/DALT 10
[19] = 50 g ai/ha, treatment B post emergence, DAT 65/DALT 50
[20] = 50 g ai/ha, treatment B post emergence, DAT 176/DALT 161
[21] = aminopyralid 15 g ai/ha, treatment A, DAT 205/DALT 190
[22] = aminopyralid 15 g ai/ha, treatment B, DAT 205/DALT 190
[23] = aminopyralid 30 g ai/ha, treatment A, DAT 205/DALT 190
[24] = aminopyralid 30 g ai/ha, treatment B, DAT 205/DALT 190
[25] = aminopyralid 50 g ai/ha, treatment A, DAT 205/DALT 190
[26] = aminopyralid 50 g ai/ha, treatment B, DAT 205/DALT 190

Compound: Nc1cc(Cl)nc(C(=O)O)c1Cl [aminopyralid, 4-amino-3,6-dichloropyridine-2-carboxylic acid]
- damage on SINAL (Sinapis alba; 15 g ai/ha, treatment A early post emergence): 13%
- damage on SINAL (Sinapis alba; 15 g ai/ha, treatment B post emergence): 0%
- damage on SINAL (Sinapis alba; 30 g ai/ha, treatment A early post emergence): 50%
- damage on SINAL (Sinapis alba; 30 g ai/ha, treatment B post emergence): 0%
- damage on SINAL (Sinapis alba; 50 g ai/ha, treatment A early post emergence): 67%
- damage on SINAL (Sinapis alba; 50 g ai/ha, treatment B post emergence): 0%
- damage on GERPU (Geranium pusillum; [3]): 57%
- damage on GERPU (Geranium pusillum; [4]): 72%
- damage on GERPU (Geranium pusillum; [5]): 78%
- damage on GERPU (Geranium pusillum; [6]): 75%
- damage on GERPU (Geranium pusillum; [7]): 68%
- damage on GERPU (Geranium pusillum; [8]): 75%
- damage on GERPU (Geranium pusillum; [9]): 92%
- damage on GERPU (Geranium pusillum; [10]): 90%
- damage on GERPU (Geranium pusillum; [11]): 95%
- damage on GERPU (Geranium pusillum; [12]): 78%
- damage on GERPU (Geranium pusillum; [13]): 82%
- damage on GERPU (Geranium pusillum; [14]): 93%
- damage on GERPU (Geranium pusillum; [15]): 98%
- damage on GERPU (Geranium pusillum; [16]): 98%
- damage on GERPU (Geranium pusillum; [17]): 97%
- damage on GERPU (Geranium pusillum; [18]): 78%
- damage on GERPU (Geranium pusillum; [19]): 83%
- damage on GERPU (Geranium pusillum; [20]): 97%
- damage on GERPU (Geranium pusillum; [21]): 73%
- damage on GERPU (Geranium pusillum; [22]): 73%
- damage on GERPU (Geranium pusillum; [23]): 99%
- damage on GERPU (Geranium pusillum; [24]): 96%
- damage on GERPU (Geranium pusillum; [25]): 98%
- damage on GERPU (Geranium pusillum; [26]): 98%
- damage on SSYOF (Sissimbrium officinale; [3]): 33%
- damage on SSYOF (Sissimbrium officinale; [4]): 0%
- damage on SSYOF (Sissimbrium officinale; [5]): 0%
- damage on SSYOF (Sissimbrium officinale; [6]): 53%
- damage on SSYOF (Sissimbrium officinale; [7]): 0%
- damage on SSYOF (Sissimbrium officinale; [8]): 0%
- damage on SSYOF (Sissimbrium officinale; [9]): 71%
- damage on SSYOF (Sissimbrium officinale; [10]): 25%
- damage on SSYOF (Sissimbrium officinale; [11]): 25%
- damage on SSYOF (Sissimbrium officinale; [12]): 60%
- damage on SSYOF (Sissimbrium officinale; [13]): 27%
- damage on SSYOF (Sissimbrium officinale; [14]): 27%
- damage on SSYOF (Sissimbrium officinale; [15]): 86%
- damage on SSYOF (Sissimbrium officinale; [16]): 50%
- damage on SSYOF (Sissimbrium officinale; [17]): 50%
- damage on SSYOF (Sissimbrium officinale; [18]): 72%
- damage on SSYOF (Sissimbrium officinale; [19]): 32%
- damage on SSYOF (Sissimbrium officinale; [20]): 32%
- damage on SSYOF (Sissimbrium officinale; [21]): 0%
- damage on SSYOF (Sissimbrium officinale; [22]): 0%
- damage on SSYOF (Sissimbrium officinale; [23]): 23%
- damage on SSYOF (Sissimbrium officinale; [24]): 50%
- damage on SSYOF (Sissimbrium officinale; [25]): 62%
- damage on SSYOF (Sissimbrium officinale; [26]): 52%
- % activity (Stellaria media [1]): 75%
- % activity 28 DAT (Capsella bursa-pasturis): 25%
- % activity 28 DAT (Papaver rhoeas; post-emergence (Table 10)): 95%
- % activity 28 DAT (Papaver rhoeas; post-emergence (Tables 7-9)): 35%
- % activity 28 DAT (Mercurialis annua; aminopyralid 5 g ai/ha solo, post-emergence (Table 10)): 70%
- % activity 28 DAT (Mercurialis annua; aminopyralid 5 g ai/ha solo, post-emergence (Tables 7-9)): 40%
- % activity 28 DAT (Mercurialis annua; aminopyralid 10 g ai/ha solo, post-emergence (Table 10)): 90%
- % activity 28 DAT (Mercurialis annua; aminopyralid 10 g ai/ha solo, post-emergence (Tables 7-9)): 75%
- inhibition at 10 g/ha (Mercurialis annua; Mercurialis annua, post-emergence, 672 h, read-out: % activity 28 DAT, MERAN): 90%
- % activity 28 DAT (Matricaria inodora; aminopyralid 5 g ai/ha solo): 35%
- % activity 28 DAT (Matricaria inodora; aminopyralid 10 g ai/ha solo): 80%
- inhibition at 5 g/ha (Matricaria chamomilla): 75%
- inhibition at 10 g/ha (Matricaria chamomilla): 85%
- % activity 28 DAT (Stellaria media [2]; aminopyralid 5 g ai/ha solo): 35%
- % activity 28 DAT (Stellaria media [2]; aminopyralid 10 g ai/ha solo): 65%
